Values quoted from earlier work, collected in patent publication US7022306B1, “Process for the production of hydrogen” (UOP LLC, priority 2003, dated 2006).
Where two headings read alike, the source gives them in different places.

What was measured:
[1] = tested on: Rat
[2] = tested on: Rat; remark: listed apart in the source

| SMILES | Toxicity LD50 (mg/kg) Oral-Rat [2] [mg/kg] | further results |
| --- | --- | --- |
| CCCC [Butane] |  | Toxicity LC50 (mg/liter) Inhalation-Rat ([1]; for 4 hours): 658 for 4 hours mg/liter |
| OC[C@@H](O)[C@@H](O)[C@H](O)[C@@H](O)CO [Sorbitol] | 15900 |  |
| CC(C)OC(C)C [Isopropylether] | 8470 |  |
| C [Methane] |  | Toxicity LC50 (mg/liter) Inhalation-Rat [1]: >5 mg/L |
| CC(C)O [Isopropanol] | 5045 |  |
| CCCCC [Pentane] | >2000 |  |
